Test results: the NIST ThermoML archive (doi:10.1016/j.jct.2014.01.030)
± gives the expanded uncertainty stated by the source.

Assay: xn = mol fraction of the nth substance listed
Conditions: 101 kPa, Liquid; for speed of sound: Sing-around technique in a fixed-path interferometer; for mass density: Vibrating tube method

CCn1cc[n+](C)c1.COS(=O)(=O)[O-] [1-ethyl-3-methylimidazolium methylsulfate] + CCCCCO
Conditions | mass density, 288.15 K [kg/m3] | mass density, 298.15 K [kg/m3] | mass density, 308.15 K [kg/m3] | speed of sound, 288.15 K [m/s] | speed of sound, 298.15 K [m/s] | speed of sound, 308.15 K [m/s]
x2 = 0 | 1287.57 ± 0.47 | 1280.81 ± 0.47 | 1273.97 ± 0.46 | 1781 ± 2 | 1756 ± 2 | 1732 ± 2
x2 = 0.057 | 1271.79 ± 0.46 | 1264.9 ± 0.45 | 1258.06 ± 0.45 | 1759 ± 2 | 1734 ± 2 | 1710 ± 2
x2 = 0.113 | 1255.1 ± 0.45 | 1248.21 ± 0.44 | 1241.74 ± 0.44 | 1733 ± 2 | 1708 ± 2 | 1684 ± 2
x2 = 0.216 | 1221.14 ± 0.42 | 1214.5 ± 0.41 | 1207.89 ± 0.41 | 1678 ± 2 | 1652 ± 2 | 1628 ± 2
x2 = 0.306 | 1188.62 ± 0.39 | 1181.87 ± 0.39 | 1175.24 ± 0.38 | 1627 ± 2 | 1600 ± 2 | 1576 ± 2
x2 = 0.404 | 1150.41 ± 0.36 | 1143.48 ± 0.36 | 1136.6 ± 0.35 | 1569 ± 2 | 1544 ± 2 | 1519 ± 2
x2 = 0.51 | 1104.6 ± 0.33 | 1097.6 ± 0.32 | 1090.68 ± 0.32 | 1511 ± 2 | 1485 ± 2 | 1459 ± 2
x2 = 0.608 | 1058.29 ± 0.29 | 1051.16 ± 0.29 | 1043.98 ± 0.28 | 1463 ± 2 | 1435 ± 2 | 1408 ± 2
x2 = 0.716 | 1001.72 ± 0.26 | 994.56 ± 0.26 | 987.39 ± 0.26 | 1413 ± 2 | 1385 ± 2 | 1357 ± 2
x2 = 0.801 | 952.72 ± 0.26 | 945.38 ± 0.26 | 938.08 ± 0.26 | 1378 ± 2 | 1349 ± 2 | 1320 ± 2
x2 = 0.9 | 889.67 ± 0.27 | 882.45 ± 0.27 | 875.19 ± 0.27 | 1342 ± 2 | 1311 ± 2 | 1280 ± 2
x2 = 0.956 | 851 ± 0.27 | 843.78 ± 0.28 | 836.48 ± 0.28 | 1325 ± 2 | 1292 ± 2 | 1260 ± 2

CCn1cc[n+](C)c1.COS(=O)(=O)[O-] [1-ethyl-3-methylimidazolium methylsulfate] + CCCO
Conditions | mass density, 288.15 K [kg/m3] | mass density, 298.15 K [kg/m3] | mass density, 308.15 K [kg/m3] | speed of sound, 288.15 K [m/s] | speed of sound, 298.15 K [m/s] | speed of sound, 308.15 K [m/s]
x2 = 0 | 1287.57 ± 0.47 | 1280.81 ± 0.47 | 1273.97 ± 0.46 | 1781 ± 2 | 1756 ± 2 | 1732 ± 2
x2 = 0.055 | 1277.08 ± 0.43 | 1270.16 ± 0.43 | 1263.29 ± 0.42 | 1765 ± 2 | 1741 ± 2 | 1717 ± 2
x2 = 0.104 | 1266.71 ± 0.4 | 1259.77 ± 0.39 | 1252.89 ± 0.39 | 1750 ± 2 | 1725 ± 2 | 1701 ± 2
x2 = 0.21 | 1241.65 ± 0.33 | 1234.68 ± 0.32 | 1227.75 ± 0.32 | 1712 ± 2 | 1687 ± 2 | 1662 ± 2
x2 = 0.307 | 1215.18 ± 0.27 | 1208.16 ± 0.27 | 1201.19 ± 0.27 | 1671 ± 2 | 1645 ± 2 | 1620 ± 2
x2 = 0.414 | 1181.08 ± 0.23 | 1174.01 ± 0.22 | 1166.97 ± 0.22 | 1617 ± 2 | 1592 ± 2 | 1567 ± 2
x2 = 0.519 | 1141.11 ± 0.19 | 1133.94 ± 0.19 | 1126.8 ± 0.19 | 1559 ± 2 | 1533 ± 2 | 1507 ± 2
x2 = 0.62 | 1095.52 ± 0.18 | 1088.26 ± 0.17 | 1081.02 ± 0.17 | 1498 ± 2 | 1471 ± 2 | 1445 ± 2
x2 = 0.718 | 1042.21 ± 0.17 | 1034.8 ± 0.17 | 1027.38 ± 0.17 | 1435 ± 2 | 1407 ± 2 | 1380 ± 2
x2 = 0.81 | 981.73 ± 0.18 | 974.16 ± 0.19 | 966.57 ± 0.19 | 1373 ± 2 | 1344 ± 2 | 1315 ± 2
x2 = 0.907 | 903.61 ± 0.21 | 895.88 ± 0.21 | 888.1 ± 0.21 | 1307 ± 2 | 1276 ± 2 | 1245 ± 2
x2 = 0.954 | 858.4 ± 0.24 | 850.58 ± 0.24 | 842.66 ± 0.25 | 1276 ± 2 | 1243 ± 2 | 1211 ± 2
